For experiment [1], the target named is T1, Progesterone receptor (Homo sapiens) (UniProt P06401).
T1 sequence (whole entry): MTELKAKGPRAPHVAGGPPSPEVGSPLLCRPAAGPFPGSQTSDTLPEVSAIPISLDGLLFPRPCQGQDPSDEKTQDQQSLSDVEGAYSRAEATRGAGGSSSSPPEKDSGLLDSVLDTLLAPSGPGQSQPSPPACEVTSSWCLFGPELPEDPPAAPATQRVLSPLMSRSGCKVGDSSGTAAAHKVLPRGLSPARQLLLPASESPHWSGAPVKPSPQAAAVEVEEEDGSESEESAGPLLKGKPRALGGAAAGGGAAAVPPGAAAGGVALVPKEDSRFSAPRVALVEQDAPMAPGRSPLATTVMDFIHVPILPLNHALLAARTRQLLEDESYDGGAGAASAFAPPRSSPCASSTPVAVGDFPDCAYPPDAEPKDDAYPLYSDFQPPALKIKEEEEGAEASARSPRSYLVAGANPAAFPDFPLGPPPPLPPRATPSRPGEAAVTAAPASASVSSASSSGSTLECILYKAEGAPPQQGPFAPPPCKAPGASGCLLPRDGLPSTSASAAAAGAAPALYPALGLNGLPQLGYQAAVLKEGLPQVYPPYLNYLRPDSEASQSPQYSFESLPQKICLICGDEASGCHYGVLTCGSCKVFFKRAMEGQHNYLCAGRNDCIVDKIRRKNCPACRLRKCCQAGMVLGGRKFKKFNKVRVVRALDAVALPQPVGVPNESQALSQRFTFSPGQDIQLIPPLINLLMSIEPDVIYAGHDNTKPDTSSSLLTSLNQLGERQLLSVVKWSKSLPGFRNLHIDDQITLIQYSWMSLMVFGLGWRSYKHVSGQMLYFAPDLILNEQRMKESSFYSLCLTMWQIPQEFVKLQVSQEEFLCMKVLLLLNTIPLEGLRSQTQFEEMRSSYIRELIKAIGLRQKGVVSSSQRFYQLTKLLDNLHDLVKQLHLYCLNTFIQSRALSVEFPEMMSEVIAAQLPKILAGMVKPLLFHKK
In words: Activation of progesterone receptor in human T47D cells after 20 hrs by PRE-tagged luciferase reporter gene assay relative to control. Format: cell-based. In general terms: Reporter assays use an easily measured gene product as a stand-in for the process of interest.

The next experiment concerns the target T2, Glucocorticoid receptor (Homo sapiens, UniProt P04150).
T2 sequence (P04150 whole entry): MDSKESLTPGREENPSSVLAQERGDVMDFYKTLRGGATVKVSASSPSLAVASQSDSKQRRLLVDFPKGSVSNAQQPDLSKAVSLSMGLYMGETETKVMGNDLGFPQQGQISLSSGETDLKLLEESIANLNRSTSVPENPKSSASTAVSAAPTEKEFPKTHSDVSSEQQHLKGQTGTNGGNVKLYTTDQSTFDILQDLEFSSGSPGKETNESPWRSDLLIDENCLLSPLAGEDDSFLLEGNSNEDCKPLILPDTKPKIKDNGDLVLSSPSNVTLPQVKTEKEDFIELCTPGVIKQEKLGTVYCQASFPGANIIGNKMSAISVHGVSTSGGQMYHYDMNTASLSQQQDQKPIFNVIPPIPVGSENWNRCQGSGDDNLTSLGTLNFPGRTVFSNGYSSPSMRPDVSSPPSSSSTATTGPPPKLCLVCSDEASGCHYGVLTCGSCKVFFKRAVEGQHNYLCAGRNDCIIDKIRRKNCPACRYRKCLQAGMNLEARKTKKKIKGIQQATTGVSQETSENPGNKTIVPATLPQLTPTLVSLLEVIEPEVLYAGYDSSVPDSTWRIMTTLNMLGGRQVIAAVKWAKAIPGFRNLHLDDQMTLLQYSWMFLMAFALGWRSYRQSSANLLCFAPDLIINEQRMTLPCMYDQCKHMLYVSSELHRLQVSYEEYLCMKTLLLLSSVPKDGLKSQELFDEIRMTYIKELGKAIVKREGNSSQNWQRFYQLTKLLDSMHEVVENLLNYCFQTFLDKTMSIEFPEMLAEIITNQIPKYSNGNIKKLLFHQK
Put plainly: Agonist activity at glucocorticoid receptor ligand binding domain expressed in african green monkey COS7 cells co-transfected with Gal4-LBD up to 10 uM by luciferase reporter gene assay. In kind it is cell-based. Particulars: cos-7; call rule not given here.

The target of a further experiment is T3, Progesterone receptor (Homo sapiens, UniProt P06401).
T3 sequence (P06401 whole entry): T1 sequence (whole entry)

The target of a further experiment is T4, Estrogen receptor (Homo sapiens, UniProt P03372).
T4 sequence (P03372 whole entry): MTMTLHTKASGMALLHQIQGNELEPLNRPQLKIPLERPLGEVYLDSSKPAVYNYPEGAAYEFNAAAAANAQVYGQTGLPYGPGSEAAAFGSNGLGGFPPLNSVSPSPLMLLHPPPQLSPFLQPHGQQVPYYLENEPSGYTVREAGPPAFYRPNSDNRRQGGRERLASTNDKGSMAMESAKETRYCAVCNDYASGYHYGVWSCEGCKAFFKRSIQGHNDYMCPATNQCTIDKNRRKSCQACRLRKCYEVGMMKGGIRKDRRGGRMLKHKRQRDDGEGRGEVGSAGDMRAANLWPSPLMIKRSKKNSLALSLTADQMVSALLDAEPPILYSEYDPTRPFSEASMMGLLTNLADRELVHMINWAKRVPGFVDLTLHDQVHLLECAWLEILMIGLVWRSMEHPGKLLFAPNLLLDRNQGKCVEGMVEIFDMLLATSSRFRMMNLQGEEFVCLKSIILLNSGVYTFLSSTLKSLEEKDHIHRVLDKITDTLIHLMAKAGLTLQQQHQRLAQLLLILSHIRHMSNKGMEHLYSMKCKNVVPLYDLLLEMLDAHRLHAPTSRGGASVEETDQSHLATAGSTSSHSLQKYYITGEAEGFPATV
In words: Agonist activity at estrogen receptor alpha ligand binding domain expressed in african green monkey COS7 cells co-transfected with Gal4-LBD by luciferase reporter gene assay. In kind it is cell-based, COS-7.

The target of another experiment is Estrogen receptor beta (Homo sapiens, UniProt Q92731).
Chain of Estrogen receptor beta (Q92731 whole entry): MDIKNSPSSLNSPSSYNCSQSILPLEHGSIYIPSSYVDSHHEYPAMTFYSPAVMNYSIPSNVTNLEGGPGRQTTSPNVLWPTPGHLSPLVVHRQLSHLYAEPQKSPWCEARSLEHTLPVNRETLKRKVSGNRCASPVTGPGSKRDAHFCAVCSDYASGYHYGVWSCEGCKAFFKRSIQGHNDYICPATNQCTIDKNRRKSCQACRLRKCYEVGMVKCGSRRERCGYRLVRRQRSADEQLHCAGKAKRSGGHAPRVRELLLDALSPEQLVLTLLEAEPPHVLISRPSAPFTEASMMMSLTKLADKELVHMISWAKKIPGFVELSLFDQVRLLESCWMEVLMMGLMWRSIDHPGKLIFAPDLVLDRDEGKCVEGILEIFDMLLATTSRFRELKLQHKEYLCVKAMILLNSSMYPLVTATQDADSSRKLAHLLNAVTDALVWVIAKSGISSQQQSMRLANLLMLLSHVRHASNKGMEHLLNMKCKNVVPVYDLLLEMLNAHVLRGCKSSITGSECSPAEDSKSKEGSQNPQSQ

The structures appear in SMILES notation.

Description for Estrogen receptor beta: Antagonist activity at estrogen receptor beta ligand binding domain expressed in african green monkey COS7 cells co-transfected with Gal4-LBD by luciferase reporter gene assay

What is called EC50 is the concentration at which the effect is half-maximal. Broadly, the IC50 is the midpoint of a concentration-inhibition curve. Turning to `CC1(C)C(=O)CC[C@]2(C)[C@@]3(C)c4[nH]c5ccccc5c4C[C@@H]3CC[C@@]12O` [LECANINDOLE B], the Efficacy in experiment [1] is less than 1%. The EC50 result at Glucocorticoid receptor was “Not Active”; at Progesterone receptor, 0.3 nM; on Estrogen receptor, greater than 10000 nM. At Estrogen receptor beta, the concentration for half-maximal inhibition (IC50) was greater than 10000 nM.
For `CC1(C)[C@H](O)CC[C@]2(C)[C@@]3(C)c4[nH]c5ccccc5c4C[C@@H]3CC[C@@]12O` [LECANINDOLE D], in experiment [1], the Efficacy is 68%. Moreover, the EC50 result at Glucocorticoid receptor is “Not Active”; on Progesterone receptor it was 1.1 nM; at Estrogen receptor, greater than 10000 nM. On Estrogen receptor beta, this compound had a half-maximal inhibitory concentration (IC50) greater than 3000 nM.

The record behind these values is ChEMBL document CHEMBL1154793, “The lecanindoles, nonsteroidal progestins from the terrestrial fungus Verticillium lecanii 6144” (J Nat Prod, 2009).
